Where “and” joins values, the source holds several entries; their conditions need not be identical. Identical values can stand only once. Counter-ions that a name gives are not always drawn. Like-named read-outs stand apart in the source and are kept apart here.
Key:
C. parvum HNJ-1 strain [1] = assay: In vitro C. parvum growth inhibition assay (Sporo-Glo staining, fluorescence microscopy count in infected HCT-8 cells); format: cell-based, Cryptosporidium parvum; conditions: for EC50 / inhibition at 1 µM: Cryptosporidium parvum; for EC50: read-out: EC50 value; for inhibition at 1 µM: read-out: Parasite inhibition (%); for Selectivity index: ratio of CC50 (HCT-8) / EC50 (C. parvum)
Protocol: The primary screening of compounds for C. parvum was performed as follows: HCT-8 cells were seeded in 96-well plates at a density of 2 × 10^4 cells/well and allowed to grow overnight. Before infecting cells, Cryptosporidium oocysts were excysted to sporozoites. 87 compounds were tested against C. parvum at a single concentration of 1 μM. Each compound was tested once. Infected HCT-8 cells and uninfected HCT-8 cells were used as positive and negative controls, respectively, in medium containing 0.1% DMSO. Nitazoxanide was used as a standard comparative drug. In vitro inhibition assays were carried out as previously described. Briefly, oocysts were suspended in 1 ml of 0.1% sodium hypochlorite in PBS, incubated for 5 min at 4°C, centrifuged for 10 min at 3000 rpm, and washed three times in PBS. The oocysts were then suspended in excystation solution consisting of 0.75% sodium taurocholate and 0.25% trypsin dissolved in 0.1 M phosphate buffer (with 93.4 mM K2HPO4 and 6.5 mM KH2PO4; pH 8.0) and incubated at 37°C for 1 h. The oocyst/sporozoite suspensions were then rinsed in 1 x PBS (with 137 mM NaCl, 2.7 mM KCl, 8 mM Na2HPO4, and 2 mM KH2PO4; pH 7.5) once more before being filtered through a 5-μm pore-size PVDF filter (Millipore, Burlington, MA, USA) with 5 ml syringe to remove the oocyst wall. HCT-8 cells were seeded in 96-well plates (Thermo Fisher Scientific Inc., MA, USA) and incubated overnight. The cells were then infected with C. parvum sporozoites (4 ×10^4 sporozoites/well) containing in RPMI-1640 medium for 3 h. After 3h inoculation, the non-infected parasite or debris were washed with new RPMI-1640 media. At this point, in RPMI-1640 medium containing 1 μM library compounds were added. Infected cells were incubated for an additional 45 h. Following incubation, the infected cells were fixed for 10 minutes in ice-cold 100% methanol at room temperature. Plates were then carefully rinsed 3 times with PBS. The parasite infected cells were then blocked with 1% bovine serum albumin (BSA) in PBS for 30 minutes and then stained with Sporo-Glo (an anti-Cryptosporidium polyclonal antibody) (Waterborne Environmental, Inc., VA, USA) protected from light for 1 h at room temperature. Finally, cells were washed twice with 1 x PBS-T (1 x PBS supplemented with 0.01% Tween). A Keyence BZ-II 9000 was used to capture the images (KEYENCE, Osaka, Japan). The plates were imaged with a HS all-in-one fluorescence microscope using a 20 x objective. The image output was imported into Microsoft excel for data organization and analyses. All C. parvum parasite in the well were counted.
For a second investigation, four selective hit compounds were used to determine the half-maximum inhibitory concentration (EC50). The parasites were treated with various doses of compounds (ranging from 0.008–1 μM). HCT-8 cells (2 × 10^4 cells/well) were grown for 24 h before being infected with 4 × 10^4 C. parvum sporozoites in 96-well plates. […] Sporo-Glo was used for C. parvum staining as described above. Fluorescence microscopy with a Keyence BZ-II 9000 imager was used to count all Cryptosporidium in the wells (KEYENCE, Osaka, Japan). EC50 vales were determined by analyzing dose-response curves made by GraphPad Prism (GraphPad Software, CA, USA).

C. parvum HNJ-1 strain [2] = assay: In vivo C. parvum growth inhibition assay (oocyst shedding in feces of infected SCID mice, sugar flotation); set-up: species or system Cryptosporidium parvum; conditions: for numbers of oocysts discharged in the feces: 50, 25 and 12.5 mg/kg oral, infected SCID mice; for % of oocysts shedding / % reduction in oocysts shedding: initial dose-finding (S1 Table), 1 mouse; for % reduction in oocyst shedding: SCID mice n=3, vs untreated infected control
C. parvum = assay: Histopathological analysis and immunohistochemistry of ileum of C. parvum-infected mice; format: in vivo, Cryptosporidium parvum; set-up: key to severity of C. parvum infection in ileum, Score: -, no oocysts; 1+, mild focal infection; 2+, moderate multifocal infection; 3+, severe diffuse infection; conditions: for severity of C. parvum infection in ileum, Score: HE and immunohistochemistry, most severe area, day 14, dose not stated; for reduction of oocysts, histopathological and scanning electron microscopy findings: ileum of infected treated mice (S2 Fig)
Protocol: (§1) We performed a histopathological analysis to evaluate the growth inhibitory effects and toxicity of the hit compounds in C. parvum-infected mice. In brief, ileum was collected, fixed in 10% neutral buffered formalin, and paraffin-embedded. Each section was cut to a thickness of 4 μm for hematoxylin and eosin (HE) staining and immunohistochemistry. Immunohistochemistry (IHC) was performed following standard techniques using the Envision+ system (Agilent Technologies, Inc., Santa Clara, CA) and 3,3-diaminobenzidine (DAB)(Dojindo, Kumamoto, Japan). Anti-Toxoplasma gondii (RH strain) rabbit polyclonal IgG (Abcam, Cambridge, UK) was used as the primary antibody. The antibody cross reacts with C. Parvum. To reduce the endogenous peroxidase activity, the sections were incubated with 3% H2O2 for 5 minutes. Sections were incubated with primary antibodies overnight at 4°C. After washing with PBS with Tween 20 (PBST), sections were incubated with Envision+ single polymer solution (Agilent Technologies Inc.) for 30 minutes at room temperature. Sections were counterstained with Mayer’s hematoxylin. The severity of C. parvum infection was evaluated in the most severe area, and scored from—to 3+ (-, no oocysts; 1+, mild focal infection; 2+, moderate multifocal infection; 3+, severe diffuse infection). Sub-effects of drugs (hepatocellular damage) were evaluated for major histological changes in karyomegaly, hepatocellular hypertrophy, and interstitial fibrosis/inflammation. We also checked the organs (liver, heart, lung, kidney, and intestines) alteration at necropsy whether it has abnormal or normal.

[3] = for body weight of treated infected mice: initial dose-finding doses, 11 consecutive days (S1 Fig)
Protocol: The growth inhibitory effect of the hit compounds was assessed in a mouse model infected with C. parvum oocysts. In this experiment, four-week-old female SCID mice (Charles River Laboratories, Shizuoka, Japan) were used. In the infected groups, mice were orally inoculated with 1.0 × 10^5 C. parvum oocysts by using sterile gavage needles. Initially, four compounds were tested at different concentrations to figure out the optimum dosages. Six groups of mice were given oral dosages of 50, 25, and 12.5 mg/kg body weight (BW) of two compounds (alisol-A and alisol-B). […] Bufotalin was given orally at three different doses to the other mouse group: 0.1, 0.05, and 0.025 mg/kg BW. […] The positive control group consisted of infected and untreated mice, whereas the negative control group consisted of noninfected and untreated mice. Treatment began on the third day after infection and lasted until the thirteenth day. The body weight and condition were checked every day, and treatment was given based on the body weight. On days 1, 3, 6, 7, 9, 12, 14, fecal samples were taken. The total number of oocysts per gram was calculated after counting the oocysts in the feces using the sugar flotation method. The treated and untreated mice were euthanized by cervical dislocation on day 14, and a thorough necropsy was performed.

[4] = Host cell viability assay (Cell-Titer Glo)
Protocol: (§2) HCT-8 cells (4 × 10^4 cells/well) 100 μl were seeded in 96-well plates, cultured for 24 h, and then treated for 48 h with different concentrations of hit compounds (10^1, 1, 10^−1, 10^−2, 10^−3, 10^−4 μM). After a 48-h incubation period, equilibrate the 96-well plates in room temperature (RT) for 30 minutes. Then, equal volume of Cell-Titer Glo (Promega) reagent was added to each treated well, the plate was shaken on an orbital shaker for 2 minutes then incubated for 10 minutes at RT. The luminescence was quantified by the GloMax Navigator plate reader (Promega, Japan) and the cell viability was evaluated as directed by the kit manufacturer. The luminescence signal of control wells containing DMSO was set to 100% cell viability. […] Graph Pad Prism 7.0.1 was used to determine CC50 values.

HCT-8 cells = assay: Host cell viability assay (Cell-Titer Glo); conditions: HCT-8 cells, 48 h, 1 μM
Protocol: as §2

[5] = Liver histology (sub-effects of drugs, hepatocellular damage) in treated mice; format: in vivo, SCID mice
Protocol: as §1

Cryptosporidium parvum = conditions: cited from earlier work
[6] = 100 mg/kg BW oral, 11 days, SCID mice n=3, mean of days 3, 6, 7, 9, 12, 14
[7] = HE stain, infected treated mice (S3 Fig)
[8] = human, Host cell viability (%), HCT-8 cells, 48 h, 1 μM

Row | Compound | Selectivity index (C. parvum HNJ-1 strain [1]) | numbers of oocysts discharged in the feces (C. parvum HNJ-1 strain [2]) | % of oocysts shedding (C. parvum HNJ-1 strain [2]; 12.5 mg/kg BW, 11 days) | % reduction in oocysts shedding (C. parvum HNJ-1 strain [2]; 12.5 mg/kg BW, 11 days) | severity of C. parvum infection in ileum, Score (C. parvum) | reduction of oocysts, histopathological and scanning electron microscopy findings (C. parvum) | body weight of treated infected mice [3] | Host cell viability (%) (HCT-8 cells) | EC50 (C. parvum HNJ-1 strain [1]; HCT-8, 45 h) | inhibition at 1 µM (C. parvum HNJ-1 strain [1]; HCT-8, 45 h) | No. of oocysts, Mean (C. parvum HNJ-1 strain [2]; [6]) | histological findings in liver [5, 7] | CC50 at 48 h ([4]; human) | viability at 48 h, 1 µM [4, 8] | other results
1 | C[C@H](C[C@H](O)[C@@H](O)C(C)(C)O)C1=C2C[C@H](O)[C@H]3[C@@]4(C)CCC(=O)C(C)(C)[C@@H]4CC[C@]3(C)[C@@]2(C)CC1 [Alisol-A] | 484.4 | no significant reduction | 55.6% | 44.4% | 3+ | no notable reduction of oocysts | not significant | 99.5% | – | – | – | – | – | – | EC50 (C. parvum HNJ-1 strain [1]; HCT-8, C. parvum HNJ-1, 0.008–1 μM, 45 h, mean of three experiments): 0.123 ± 0.0067 µM; inhibition at 1 µM (C. parvum HNJ-1 strain [1]; 1 μM, 45 h, C. parvum HNJ-1 strain in HCT-8 cells, first screen): 78.1%; body weight of treated infected mice ([3]; listed as alisol-A): no significant difference; adverse effects / death of treated mice ([3]; oral, at 50 and 25 mg/kg body weight, infected SCID mice): died; CC50 at 48 h ([4]; human, HCT-8 cells): 59.6 µM; viability at 48 h, 1 µM ([4]; human, HCT-8 cells, Host cell viability (%), 48 h, 1 μM): > 95%
2 | CN1[C@@H]2CC[C@H]1C[C@@H](OC(=O)C(CO)c1ccccc1)C2 (some centres unmarked) [Atropine sulfate, reference compound] | – | – | – | – | 2+ | – | not significant | – | 0.254 ± 0.0303 µM | 72.3% | 91.1 | inflammation | – | – | No. of oocysts, Mean (C. parvum HNJ-1 strain [2]; 50 mg/kg BW oral, 11 days, SCID mice n=3, mean of days 3, 6, 7, 9, 12, 14): 96.6; % reduction in oocyst shedding (C. parvum HNJ-1 strain [2]; 50 mg/kg BW oral, 11 days): 56.2%; % reduction in oocyst shedding (C. parvum HNJ-1 strain [2]; 100 mg/kg BW oral, 11 days): 58.7%; No. of oocysts, Mean (C. parvum HNJ-1 strain [2]; 200 mg/kg BW oral, 11 days (day 3–13 p.i.), SCID mice n=3, mean of oocysts shed on days 3, 6, 7, 9, 12, 14): 71.1; % reduction in oocyst shedding (C. parvum HNJ-1 strain [2]; 200 mg/kg BW oral, 11 days): 67.8%; % of oocysts shedding (C. parvum HNJ-1 strain [2]; 25 mg/kg BW, 11 days): 75.2%; % reduction in oocysts shedding (C. parvum HNJ-1 strain [2]; 25 mg/kg BW, 11 days): 24.8%; % reduction in oocysts shedding (C. parvum HNJ-1 strain [2]; 50 mg/kg BW, 11 days): 50.9%; % of oocysts shedding (C. parvum HNJ-1 strain [2]; 100 mg/kg BW, 11 days): 45.1%; % reduction in oocysts shedding (C. parvum HNJ-1 strain [2]; 100 mg/kg BW, 11 days): 54.9%
3 | CC(=O)O[C@H]1C[C@]2(O)[C@@H]3CC[C@@H]4C[C@@H](O)CC[C@]4(C)[C@H]3CC[C@]2(C)[C@H]1c1ccc(=O)oc1 [Bufotalin] | 172.3 | – | – | – | 1+ | – | not significant | 95.1% | 0.0634 ± 0.0187 µM | 82.9% | – | inflammation and hepatocellular hypertrophy | 10.9 µM | > 95% | No. of oocysts, Mean (C. parvum HNJ-1 strain [2]; 0.025 mg/kg BW oral, 11 days, SCID mice n=3, mean of days 3, 6, 7, 9, 12, 14): 92.3; % reduction in oocyst shedding (C. parvum HNJ-1 strain [2]; 0.025 mg/kg BW oral, 11 days): 58.2%; No. of oocysts, Mean (C. parvum HNJ-1 strain [2]; 0.05 mg/kg BW oral, 11 days, SCID mice n=3, mean of days 3, 6, 7, 9, 12, 14): 86.6; % reduction in oocyst shedding (C. parvum HNJ-1 strain [2]; 0.05 mg/kg BW oral, 11 days): 60.8%; No. of oocysts, Mean (C. parvum HNJ-1 strain [2]; 0.1 mg/kg BW oral, 11 days, SCID mice n=3, mean of days 3, 6, 7, 9, 12, 14): 48.5; % reduction in oocyst shedding (C. parvum HNJ-1 strain [2]; 0.1 mg/kg BW oral, 11 days): 78.1%; % of oocysts shedding (C. parvum HNJ-1 strain [2]; 0.1 mg/kg BW, 11 days): 28.8%; % reduction in oocysts shedding (C. parvum HNJ-1 strain [2]; 0.1 mg/kg BW, 11 days): 71.2%
4 | C[C@H](C[C@H](O)[C@H]1OC1(C)C)C1=C2C[C@H](O)[C@H]3[C@@]4(C)CCC(=O)C(C)(C)[C@@H]4CC[C@]3(C)[C@@]2(C)CC1 [Alisol-B] | 460.6 | no significant reduction | 61.3% | 38.7% | 2+ | no notable reduction of oocysts | – | 97.6% | 0.0796 ± 0.0138 µM | 92.9% | – | – | 36.7 µM | > 95% | adverse effects / death of treated mice ([3]; mouse, in vivo): died
5 | CC(=O)Oc1ccccc1C(=O)Nc1ncc([N+](=O)[O-])s1 [Nitazoxanide] | – | – | – | – | 2+ | – | – | – | – | – | 81.1 | – | – | – | EC50 (C. parvum HNJ-1 strain [1]; HCT-8, C. parvum, dose-dependent curve of comparative drug (response to reviewers)): 4.14 ± 0.54 µM; histological findings in liver ([5]; mouse, in vivo): karyomegaly and hepatocellular hypertrophy; IC50 (Cryptosporidium parvum; ref 30 (Bessoff et al., 2013), read-out: IC50 against Cryptosporidium parvum): ~3.7 µM and 3.7 µM; EC50 (Cryptosporidium parvum; ref PMID: 22167242, PMID: 29341586, PMID: 30297368, read-out: range of EC50 value): 1.55 to 5.1 µM
